Molecular target: T1, P2X3 (Homo sapiens, UniProt P56373)
T1 construct: expressed in transfected cells; host or cells: HEK293
T1 sequence (P56373 1-397): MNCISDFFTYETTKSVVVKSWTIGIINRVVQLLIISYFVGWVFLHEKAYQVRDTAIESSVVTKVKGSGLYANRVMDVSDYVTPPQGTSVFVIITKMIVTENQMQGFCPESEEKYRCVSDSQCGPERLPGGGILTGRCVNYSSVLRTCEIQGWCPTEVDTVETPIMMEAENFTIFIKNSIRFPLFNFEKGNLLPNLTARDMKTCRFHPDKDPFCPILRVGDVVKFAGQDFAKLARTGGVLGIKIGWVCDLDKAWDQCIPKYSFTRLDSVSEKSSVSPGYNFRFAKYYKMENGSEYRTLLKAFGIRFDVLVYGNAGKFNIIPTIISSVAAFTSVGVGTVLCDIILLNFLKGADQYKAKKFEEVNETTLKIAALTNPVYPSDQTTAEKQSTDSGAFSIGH
Experiment: P2X3 Antagonist Assay (FLIPR calcium, Fluo-8, HEK293 cells transfected with human ion channel cDNAs, αβ-meATP stimulation)
Format: cell-based
Conditions: antagonist mode, αβ-meATP 3 μM

Row | Compound | IC50
1 | COCCNC(=O)c1ccc(-c2nc3cc(Cl)ccn3c2C[C@H]2CN(C(=O)OC)CCO2)c(F)c1 [Compound A73, methyl (S)-2-((7-chloro-2-(2-fluoro-4-((2-methoxyethyl)carbamoyl)phenyl)imidazo[1,2-a]pyridin-3-yl)methyl)morpholine-4-carboxylate] | > 1000 nM
2 | CNC(=O)c1cc(C)c(-c2nc3cc(C)ccn3c2C[C@H]2CN(C(=O)OC)CCO2)cc1F [Compound A12, methyl (S)-2-((2-(5-fluoro-2-methyl-4-(methylcarbamoyl)phenyl)-7-methylimidazo[1,2-a]pyridin-3-yl)methyl)morpholine-4-carboxylate] | < 100 nM
3 | CNC(=O)c1cc(F)c(-c2nc3cc(C)ccn3c2CC2CCN(C(=O)OC)CC2)c(F)c1 [Compound A20, methyl 4-((2-(2,6-difluoro-4-(methylcarbamoyl)phenyl)-7-methylimidazo[1,2-a]pyridin-3-yl)methyl)piperidine-1-carboxylate] | < 100 nM
4 | CNC(=O)c1ccc(-c2nc3cc(C(O)C(F)(F)F)ccn3c2C[C@H]2CN(C(=O)OC)CCO2)c(F)c1 (single isomer, unassigned) [A46 (Peak 1)] | > 1000 nM
5 | CNC(=O)c1cc(F)c(-c2nc3cc(C)ccn3c2CC2CCCC(NC(C)=O)C2)c(F)c1 (single isomer, unassigned) [cis-A22 (Peak 2), 4-(3-((3-acetamidocyclohexyl)methyl)-7-methylimidazo[1,2-a]pyridin-2-yl)-3,5-difluoro-N-methylbenzamide] | < 100 nM
6 | CNC(=O)c1cc(F)c(-c2nc3cc(C)ccn3c2CC2CCC(NC(C)=O)CC2)c(F)c1 (stereo not drawn) [trans-A21, 4-(3-((4-acetamidocyclohexyl)methyl)-7-methylimidazo[1,2-a]pyridin-2-yl)-3,5-difluoro-N-methylbenzamide] | > 1000 nM

— patent US12655145B2, “P2X3 modulators” (GlaxoSmithKline Intellectual Property (No. 3) Limited, priority 2020, dated 2026)
